US20050042236A1, “Plant extract active as an immunostimulating agent” (priority 2001, published 2005)

Tested on: EA-specific antibodies
Assay: Production of EA-specific antibodies in mice (Table 2)
Format: in vivo
Details: EA 50 μg, BaBb/c mice, preparation 20 μg intraperitoneal
Description: Erythrocytes of defibrinated sheep blood were washed three times by centrifugation (1000 rpm, 10 m)in 50-fold volume of Hanks' solution, and were then re-suspended in the same solution. Mice were immunised intraperitoneally with 2 ml SE, 200 μg BSA or 50 μg EA. The latter two antigens were injected twice, with a 2-4 week interval between immunisations.
The appropriate amount of APG was dissolved in Hank's solution or in physiological saline, 2-3 hours prior to use. APG was administered to mice in doses of between 1 and 1000 μg. When. mice were immunised with BSA, EA or SE, APG was administered simultaneously with the antigen.
The intensity of the immune response in mice which were immunised with SE was determined according to the number of antibody-forming cells (AFC), detected in the spleen cell suspensions using the method of Jerne and Nordin (1963). AFC were detected 4-5 days following immunisation. Presence of antibodies specific to EA or BSA in blood serum of mice was detected using a solid-phase enzyme-immunoassay (EIA). Isotype of antibodies specific to BSA was determined by EIA using secondary rabbit antibodies specific to mouse IgM, IgG1, IgG2a, IgG2b or IgG3.
The lipopeptide was Pam3Cys-Ser-Lys4 a well-known immunoadjuvant.

Pam3Cys-Ser-Lys4 [lipopeptide]
Serum Titer of EA-specific Antibodies: 20,000
